We go through one compound from PMC2865140 (Microbiology (Reading, England), 2009).

Structures are written as SMILES.

The target in assay [1] is AccD5 (carboxyltransferase beta subunit of ACCase 5) (Mycobacterium tuberculosis, UniProt P9WQH7). It is filed as biochemical.
The target in assay [2] is T1, AccD6 (carboxyltransferase beta subunit of ACCase 6) (Mycobacterium tuberculosis, UniProt P9WQH5).
T1 sequence (P9WQH5 1-473): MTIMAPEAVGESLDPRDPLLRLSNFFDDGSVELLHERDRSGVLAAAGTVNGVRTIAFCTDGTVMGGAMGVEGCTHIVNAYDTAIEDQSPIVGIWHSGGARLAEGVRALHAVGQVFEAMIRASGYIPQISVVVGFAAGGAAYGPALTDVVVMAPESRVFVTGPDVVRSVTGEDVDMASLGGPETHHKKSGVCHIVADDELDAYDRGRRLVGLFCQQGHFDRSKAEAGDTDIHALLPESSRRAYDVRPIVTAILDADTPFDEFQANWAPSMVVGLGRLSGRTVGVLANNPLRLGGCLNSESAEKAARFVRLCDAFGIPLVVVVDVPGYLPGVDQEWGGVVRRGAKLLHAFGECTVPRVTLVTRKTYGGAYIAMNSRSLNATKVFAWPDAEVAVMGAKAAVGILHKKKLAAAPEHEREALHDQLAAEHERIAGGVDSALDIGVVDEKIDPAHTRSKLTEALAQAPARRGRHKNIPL
T1 sequence (P9WPQ3 1-654 partner): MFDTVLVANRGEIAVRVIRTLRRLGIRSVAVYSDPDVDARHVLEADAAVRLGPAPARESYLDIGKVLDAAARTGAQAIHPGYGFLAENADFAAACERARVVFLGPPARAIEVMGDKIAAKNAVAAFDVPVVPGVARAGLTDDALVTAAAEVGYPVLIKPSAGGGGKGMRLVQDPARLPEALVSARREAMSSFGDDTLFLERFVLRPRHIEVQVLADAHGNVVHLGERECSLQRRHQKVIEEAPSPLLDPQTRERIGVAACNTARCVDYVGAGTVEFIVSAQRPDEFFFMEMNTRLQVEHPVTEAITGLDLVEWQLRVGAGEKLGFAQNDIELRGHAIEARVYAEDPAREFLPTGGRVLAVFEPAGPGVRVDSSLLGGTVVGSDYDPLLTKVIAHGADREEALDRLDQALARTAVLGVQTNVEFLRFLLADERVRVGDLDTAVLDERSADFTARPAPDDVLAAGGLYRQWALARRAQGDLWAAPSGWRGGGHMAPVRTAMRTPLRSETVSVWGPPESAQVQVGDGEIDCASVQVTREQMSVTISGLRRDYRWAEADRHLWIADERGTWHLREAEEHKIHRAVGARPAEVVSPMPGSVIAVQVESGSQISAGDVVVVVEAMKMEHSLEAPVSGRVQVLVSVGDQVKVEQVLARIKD
It is filed as biochemical.

AccD5 (carboxyltransferase beta subunit of ACCase 5), sequence (P96890 2-600): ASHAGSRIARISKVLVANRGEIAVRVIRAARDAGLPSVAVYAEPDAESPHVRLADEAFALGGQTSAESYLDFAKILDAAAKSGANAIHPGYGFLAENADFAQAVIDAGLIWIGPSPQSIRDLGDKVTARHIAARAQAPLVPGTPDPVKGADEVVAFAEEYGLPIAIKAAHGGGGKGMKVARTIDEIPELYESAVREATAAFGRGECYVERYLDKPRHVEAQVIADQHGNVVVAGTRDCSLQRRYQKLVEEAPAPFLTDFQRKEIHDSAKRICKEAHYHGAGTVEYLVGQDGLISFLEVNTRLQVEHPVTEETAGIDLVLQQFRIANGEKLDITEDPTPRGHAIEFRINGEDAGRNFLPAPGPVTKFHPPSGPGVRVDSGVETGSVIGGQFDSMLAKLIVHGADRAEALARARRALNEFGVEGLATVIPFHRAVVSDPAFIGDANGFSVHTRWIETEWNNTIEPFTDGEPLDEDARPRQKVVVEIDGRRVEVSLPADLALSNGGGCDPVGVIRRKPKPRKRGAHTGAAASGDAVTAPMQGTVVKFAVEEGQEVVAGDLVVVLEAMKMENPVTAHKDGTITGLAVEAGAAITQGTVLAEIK
AccD5 (carboxyltransferase beta subunit of ACCase 5), sequence (P96886 whole entry, further chain): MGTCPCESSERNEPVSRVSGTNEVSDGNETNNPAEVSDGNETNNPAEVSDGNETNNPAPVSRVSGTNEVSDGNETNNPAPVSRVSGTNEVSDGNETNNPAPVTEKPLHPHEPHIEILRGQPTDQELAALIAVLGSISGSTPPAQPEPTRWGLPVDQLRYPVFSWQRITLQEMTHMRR
AccD5 (carboxyltransferase beta subunit of ACCase 5), sequence (P9WQH7 whole entry): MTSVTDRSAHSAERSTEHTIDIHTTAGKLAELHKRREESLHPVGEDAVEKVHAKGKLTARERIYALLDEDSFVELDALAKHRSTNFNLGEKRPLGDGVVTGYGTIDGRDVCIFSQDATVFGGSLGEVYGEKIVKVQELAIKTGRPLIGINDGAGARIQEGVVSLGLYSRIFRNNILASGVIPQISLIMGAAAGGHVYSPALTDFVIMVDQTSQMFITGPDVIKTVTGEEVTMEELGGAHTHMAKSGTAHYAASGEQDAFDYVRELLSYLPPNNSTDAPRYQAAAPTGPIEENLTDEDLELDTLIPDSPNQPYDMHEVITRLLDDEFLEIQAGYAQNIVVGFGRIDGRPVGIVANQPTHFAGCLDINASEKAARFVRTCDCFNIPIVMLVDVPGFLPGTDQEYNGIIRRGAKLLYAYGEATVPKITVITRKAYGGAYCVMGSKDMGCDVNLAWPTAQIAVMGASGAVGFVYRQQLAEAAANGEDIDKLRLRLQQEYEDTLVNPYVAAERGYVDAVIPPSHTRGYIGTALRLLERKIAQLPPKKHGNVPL

What is called IC50 is the midpoint of a concentration-inhibition curve. A low value points to greater potency. For `Oc1c(Cl)cc(C(c2cc(Cl)c(O)c(Cl)c2)C(c2cc(Cl)c(O)c(Cl)c2)c2cc(Cl)c(O)c(Cl)c2)cc1Cl` [NCI-172033], the results for the IC50 in assay [1] and in assay [2] were 78 µM and ~8 µM, respectively.
